Converted amounts (≈) assume the structure as drawn. Some results are limits rather than exact numbers.

What is called solubility is the dissolved amount per volume that the medium holds. High values mean a readily soluble substance, low ones a poorly soluble substance.

The nature of data set [1]: Compound solubility in water.
In data set [2] the target is T1, glucocerebrosidase (Gcase) (Homo sapiens, UniProt P04062).
T1 construct: 100 μL of micellar solution containing 10 nM GCase and 100 nM saposin C (Enzo ALX-201-262-C050)
T1 sequence (P04062 40-536): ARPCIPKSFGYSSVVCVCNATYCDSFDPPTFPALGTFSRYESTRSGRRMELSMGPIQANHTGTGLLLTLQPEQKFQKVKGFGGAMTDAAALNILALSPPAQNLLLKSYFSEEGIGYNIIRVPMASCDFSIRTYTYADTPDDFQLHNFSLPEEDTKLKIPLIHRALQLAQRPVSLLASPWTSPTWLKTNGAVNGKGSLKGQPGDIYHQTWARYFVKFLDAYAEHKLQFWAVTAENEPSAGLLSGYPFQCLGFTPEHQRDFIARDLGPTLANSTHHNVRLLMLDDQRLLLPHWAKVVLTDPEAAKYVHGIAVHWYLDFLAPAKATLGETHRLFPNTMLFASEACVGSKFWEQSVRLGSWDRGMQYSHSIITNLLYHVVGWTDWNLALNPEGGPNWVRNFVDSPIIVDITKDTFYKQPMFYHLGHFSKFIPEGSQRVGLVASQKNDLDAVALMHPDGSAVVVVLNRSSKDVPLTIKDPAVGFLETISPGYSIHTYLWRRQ
Nature of the data set: Glucocerebrosidase (Gcase) activation assay, 4-methylumbelliferyl-beta-D-glucopyranoside substrate, with saposin C. Type of data set: biochemical. Conditions: 10 nM GCase, 100 nM saposin C, pH 4.7; for activation at 0.1 µM: read-out: Percent Gcase Activation, 0.1 μM Test Compound; for activation at 1 µM: 0.25 h, read-out: Percent Gcase Activation, 1 μM Test Compound. The method, then: A 484 μL aliquot of a 1.0 mg/mL solution of phosphatidylserine (PS) (Sigma P7769) in chloroform was evaporated under a stream of nitrogen for 1 hour. The lipid film was dissolved over 4 minutes of vigorous vortexing in 40 mL of 176 mM K2HPO4/50 mM citric acid (pH 4.7) containing 7.5 μL of triton X-100, resulting in a mixed micellar preparation with a composition of 0.32 mM triton and 0.37 mol % PS. 4-Methylumbelliferyl-beta-D-glucopyranoside (ACROS-337025000) was dissolved in the micellar solution to a final concentration of 2 mM for use as the reaction substrate.
Test compounds were diluted to the desired concentrations with dimethylsulfoxide (DMSO) from 10 mM stocks, and 0.41 μL of the DMSO compound mixture was added to 100 μL of micellar solution containing 10 nM GCase and 100 nM saposin C (Enzo ALX-201-262-C050). Pre-incubation was allowed to occur for 30 minutes at room temperature, after which the reaction was initiated by combining 25 μL of substrate solution with 25 μL of compound/GCase/saposin mixture. The reaction proceeded for 15 minutes at room temperature and was stopped by adding 150 μL of 1M glycine, pH 12.5. The endpoint of the reaction was monitored by measuring fluorescence intensity (excitation: 365 nm; emission: 440 nm) on a SpectraMax i3 instrument (Molecular Devices). Test compounds were screened at 1.0 and 0.1 μM final concentration, and subsequent 8-point dose response curves were obtained using 3-fold dilutions from a maximum final concentration of 5 μM.

Turning to `C#Cc1ccc(NC(=O)c2cnc3occn3c2=O)cc1`, the solubility in data set [1] is 5.5 µg/mL (≈ 19.7 µM). For the same compound, the activation at 0.1 µM in data set [2] (0.1 μM test compound) was in the range of 5 to 10%. For the same compound, the activation at 1 µM in data set [2] (1 μM test compound) lay in the range of 5 to 10%.

On to `C[C@@H](NC(=O)c1cnc2occn2c1=O)c1ccccc1`, for which the solubility in data set [1] was determined as 25.6 µg/mL (≈ 90.4 µM). Moreover, in data set [2] (0.1 μM test compound), the activation at 0.1 µM was < 5%. Moreover, in data set [2] (1 μM test compound), the activation at 1 µM is < 5%.

For the compound “N-(4-butylcyclohexyl)-6-oxo-3,4-dihydro-2H,6H-pyrimido[2,1-b][1,3]thiazine-7-carboxamide”, the “Percent Gcase Activation, 0.1 μM Test Compound” value in data set [2] (0.1 μM test compound) was “+ (less than 5% Gcase activation)”. For the same compound, in data set [2] (1 μM test compound), the “Percent Gcase Activation, 1 μM Test Compound” value is reported as “+++ (Gcase activation greater than 10%)”.

Regarding `CN1Cc2ccc(NC(=O)c3cnc4occn4c3=O)cc2C1`, the solubility in data set [1] worked out at 16.6 µg/mL (≈ 53.5 µM). In data set [2] (0.1 μM test compound), the activation at 0.1 µM was < 5%. In addition, the activation at 1 µM in data set [2] (1 μM test compound) lay within 5 to 10%.

Take `O=C(NC1CCC(c2ccccc2)CC1)c1cnc2occn2c1=O` (stereo not shown): in data set [1], the solubility came to 58 µg/mL (≈ 172 µM). Besides, in data set [2] (0.1 μM test compound), the activation at 0.1 µM was < 5%. Moreover, the activation at 1 µM in data set [2] (1 μM test compound) is > 10%.

Compound `O=C(Nc1ccc(N2CCCCC2)cc1)c1cnc2occn2c1=O` registered a solubility in data set [1] of 2.2 µg/mL (≈ 6.5 µM). Further, the activation at 0.1 µM in data set [2] (0.1 μM test compound) is < 5%. Further, the activation at 1 µM in data set [2] (1 μM test compound) is < 5%.

`CCC(C)c1ccc(NC(=O)c2cnc3[nH]ccn3c2=O)cc1` (stereo not shown) had a solubility in data set [1] of 1.4 µg/mL (≈ 4.51 µM). Further, in data set [2] (0.1 μM test compound), the activation at 0.1 µM was < 5%. In data set [2] (1 μM test compound), the activation at 1 µM lay in the range of 5 to 10%.

For the compound `O=C(NC1CCc2ccccc2C1)c1cnc2occn2c1=O` (stereo not shown), the solubility in data set [1] is 22.6 µg/mL (≈ 73.1 µM). In addition, the activation at 0.1 µM in data set [2] (0.1 μM test compound) lay in the range of 5 to 10%. In data set [2] (1 μM test compound), the activation at 1 µM is < 5%.

With `O=C(NC1CCc2ccccc21)c1cnc2occn2c1=O` (stereo not shown), the solubility in data set [1] amounted to 25.1 µg/mL (≈ 85 µM). For the same compound, the activation at 0.1 µM in data set [2] (0.1 μM test compound) is < 5%. Moreover, the activation at 1 µM in data set [2] (1 μM test compound) was 5 to 10%.

In the case of `CCC(C)c1ccc(NC(=O)c2cnc3n(C)ccn3c2=O)cc1` (stereo not shown), in data set [1], the solubility came out at 0.5 µg/mL (≈ 1.54 µM). In addition, the activation at 0.1 µM in data set [2] (0.1 μM test compound) is < 5%. Also, the activation at 1 µM in data set [2] (1 μM test compound) is > 10%.

In turn, `CCC(C)c1ccc(NC(=O)c2cnc3occn3c2=O)cc1` (stereo not shown) showed a solubility in data set [1] of 0.3 µg/mL (≈ 0.964 µM). In addition, the activation at 0.1 µM in data set [2] (0.1 μM test compound) was < 5%. In addition, in data set [2] (1 μM test compound), the activation at 1 µM was > 10%.

In the case of `O=C(Nc1ccc2c(c1)OCCO2)c1cnc2occn2c1=O`, the solubility in data set [1] worked out at 5.5 µg/mL (≈ 17.6 µM). In addition, the activation at 0.1 µM in data set [2] (0.1 μM test compound) was < 5%. In data set [2] (1 μM test compound), the activation at 1 µM was < 5%.

As for `CCN1CCN(c2ccc(NC(=O)c3cnc4occn4c3=O)cc2)CC1`, in data set [1], the solubility worked out at 40.2 µg/mL (≈ 109 µM). Moreover, in data set [2] (0.1 μM test compound), the activation at 0.1 µM is < 5%. Moreover, the activation at 1 µM in data set [2] (1 μM test compound) was < 5%.

As for `O=C(NC1CCCc2ccccc21)c1cnc2occn2c1=O` (stereo not shown), the concentration in solution in data set [1] (solubility) was 30.2 µg/mL (≈ 97.6 µM). Further, the activation at 0.1 µM in data set [2] (0.1 μM test compound) is < 5%. In addition, the activation at 1 µM in data set [2] (1 μM test compound) was > 10%.

For the compound `CCc1ccc(NC(=O)c2cnc3occn3c2=O)cc1`, the activation at 0.1 µM in data set [2] (0.1 μM test compound) was < 5%. Further, the activation at 1 µM in data set [2] (1 μM test compound) is 5 to 10%.

The values are drawn from patent publication US20190092789A1, “HETEROBICYCLIC PYRIMIDINONE COMPOUNDS AND THEIR USE IN THE TREATMENT OF MEDICAL DISORDERS” (priority 2015, published 2019).
